Results: patent publication US10941152B2, “Pyrazole compounds as modulators of FSHR and uses thereof” (TOCOPHERX, INC., priority 2014, dated 2021)

How the values were obtained:
FSHR = molecular target: T1, FSHR (Homo sapiens, UniProt P23945); experiment: EC50 of cyclic AMP production in CHO FSHR cells + EC20 FSH (Assay A); assay type: cell-based; details: cyclic AMP production in CHO FSHR cells + EC20 FSH (0.265 pM), HTRF
T1 construct: expressed in transfected cells; host or cells: CHO (Cho-FSHR-LUC-1-1-43)
T1 sequence (P23945 18-695): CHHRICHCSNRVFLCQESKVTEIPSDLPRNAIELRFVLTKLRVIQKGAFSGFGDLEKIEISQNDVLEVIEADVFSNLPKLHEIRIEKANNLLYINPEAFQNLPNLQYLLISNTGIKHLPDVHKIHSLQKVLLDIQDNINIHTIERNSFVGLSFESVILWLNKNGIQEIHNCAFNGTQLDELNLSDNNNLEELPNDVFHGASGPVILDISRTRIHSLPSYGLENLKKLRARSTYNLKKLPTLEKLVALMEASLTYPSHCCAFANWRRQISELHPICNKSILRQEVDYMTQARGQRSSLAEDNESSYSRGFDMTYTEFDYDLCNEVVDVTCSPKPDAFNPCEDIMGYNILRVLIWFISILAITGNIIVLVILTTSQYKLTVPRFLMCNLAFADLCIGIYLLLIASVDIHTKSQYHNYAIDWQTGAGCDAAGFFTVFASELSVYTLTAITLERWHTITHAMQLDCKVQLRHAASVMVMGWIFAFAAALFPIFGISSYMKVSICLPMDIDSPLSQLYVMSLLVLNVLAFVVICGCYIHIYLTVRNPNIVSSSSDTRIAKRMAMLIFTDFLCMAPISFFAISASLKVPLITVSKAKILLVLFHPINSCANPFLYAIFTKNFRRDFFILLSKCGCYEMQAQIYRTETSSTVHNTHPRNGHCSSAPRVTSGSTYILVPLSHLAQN
Summary of the method: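 cAMP was detected by HTRF as the 665/620 nm ratio. The CHO-FSHR cells had first been exposed for 1 h at 37° C to test compound together with 0.265 pM FSH (EC20) and 200 μM IBMX. Responses are given as percent of the FSH standard maximum.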

[1] = molecular target: T2, follicle-stimulating hormone (FSH) receptor (Rattus norvegicus, UniProt P20395); experiment: Rat granulosa EC50 FSH (Assay B); assay type: cell-based
T2 construct: endogenous in cells; host or cells: rat granulosa cells
T2 sequence (P20395 18-692): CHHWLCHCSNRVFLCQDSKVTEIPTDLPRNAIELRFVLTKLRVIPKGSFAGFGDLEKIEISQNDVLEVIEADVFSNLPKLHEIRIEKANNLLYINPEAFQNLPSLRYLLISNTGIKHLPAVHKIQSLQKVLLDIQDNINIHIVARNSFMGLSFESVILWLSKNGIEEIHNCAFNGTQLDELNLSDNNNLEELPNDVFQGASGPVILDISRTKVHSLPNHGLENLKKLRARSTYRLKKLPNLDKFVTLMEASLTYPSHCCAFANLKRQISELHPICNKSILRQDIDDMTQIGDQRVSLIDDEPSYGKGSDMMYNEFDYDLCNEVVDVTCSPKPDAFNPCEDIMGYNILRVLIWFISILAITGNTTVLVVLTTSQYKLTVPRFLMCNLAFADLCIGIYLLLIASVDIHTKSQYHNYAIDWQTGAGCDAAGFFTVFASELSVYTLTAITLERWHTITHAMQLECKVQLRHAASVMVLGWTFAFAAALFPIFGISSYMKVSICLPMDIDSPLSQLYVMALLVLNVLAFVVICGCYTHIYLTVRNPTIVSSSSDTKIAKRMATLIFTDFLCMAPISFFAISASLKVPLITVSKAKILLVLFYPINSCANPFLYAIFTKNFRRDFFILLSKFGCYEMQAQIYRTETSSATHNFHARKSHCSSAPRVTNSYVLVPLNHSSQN
Method: Example 25. Rat granulosa EC50 FSH (Assay B)
The assay was performed pursuant to the teaching of Yanofsky et al. (2006) Allosteric activation of the follicle-stimulating hormone (FSH) receptor by selective, nonpeptide agonists (JBC 281(19): 13226-13233, which is incorporated by reference in the disclosure of the invention).

SMILES	EC50 (FSHR)	EC50 [1]
COc1cc2c(cc1-c1cc(C#N)ccn1)-c1c(c(C(=O)N(C)C(C)(C)C)nn1-c1cc(Cl)cc(Cl)c1)CO2 [Compound 26, N-tert-butyl-8-(4-cyanopyridin-2-yl)-1-(3,5-dichlorophenyl)-7-methoxy-N-methyl-1,4-dihydrochromeno[4,3-c]pyrazole-3-carboxamide]	10 to 100 nM	101 to 500 nM
COc1cc2c(cc1-c1ccn(C)n1)-c1c(c(C(=O)N3CCC(O)CC3(C)C)nn1-c1ccsc1)CO2 (stereo not shown) [Compound 57, (4-hydroxy-2,2-dimethylpiperidin-1-yl)(7-methoxy-8-(1-methyl-1H-pyrazol-3-yl)-1-(thiophen-3-yl)-1,4-dihydrochromeno[4,3-c]pyrazol-3-yl)methanone]	10 to 100 nM	101 to 500 nM
COc1cc2c(cc1-c1ccn(C)n1)-c1c(c(C(=O)N3CCN(C#N)CC3(C)C)nn1-c1ccsc1)CO2 [Compound 184, 4-(7-methoxy-8-(1-methyl-1H-pyrazol-3-yl)-1-(thiophen-3-yl)-1,4-dihydrochromeno[4,3-c]pyrazole-3-carbonyl)-3,3-dimethylpiperazine-1-carbonitrile]	< 10 nM	10 to 100 nM
COc1cc2c(cc1-c1cncc(CO)c1)-c1c(c(C(=O)N(C)C(C)(C)C#N)nn1-c1cc(Cl)cc(Cl)c1)CO2 [Compound 108, N-(2-cyanopropan-2-yl)-1-(3,5-dichlorophenyl)-8-(5-(hydroxymethyl)pyridin-3-yl)-7-methoxy-N-methyl-1,4-dihydrochromeno[4,3-c]pyrazole-3-carboxamide]	< 10 nM	10 to 100 nM
COc1cc2c(cc1-c1cccnc1F)-c1c(c(C(=O)N3CC[S+]([O-])CC3(C)C)nn1-c1cc(Cl)cc(Cl)c1)CO2 (stereo not shown) [Compound 6, (1-(3,5-dichlorophenyl)-8-(2-fluoropyridin-3-yl)-7-methoxy-1H,4H-chromeno[4,3-c]pyrazol-3-yl)(S-oxo-3,3-dimethylthiomorpholino)methanone]	< 10 nM	101 to 500 nM
COc1cc2c(cc1-c1cnccc1C(N)=O)-c1c(c(C(=O)N(C)C(C)(C)C)nn1-c1cc(Cl)cc(Cl)c1)CO2 [Compound 153]	< 10 nM	10 to 100 nM
COc1cc2c(cc1-c1cncc(C(N)=O)c1)-c1c(c(C(=O)N3CCOCC3(C)C)nn1-c1cc(F)cc(F)c1)CO2 [Compound 164]	< 10 nM	< 10 nM
COc1cc2c(cc1-c1cncc(C(N)=O)c1)-c1c(c(C(=O)N3CCOCC3(C)C)nn1-c1cc(Cl)cc(Cl)c1)CO2 [Compound 169]	< 10 nM	101 to 500 nM
COc1cc2c(cc1-c1cccc(C#N)c1)-c1c(c(C(=O)N(C)C(C)(C)C)nn1-c1cc(Cl)cc(Cl)c1)CO2 [Compound 18, N-tert-butyl-8-(3-cyanophenyl)-1-(3,5-dichlorophenyl)-7-methoxy-N-methyl-1,4-dihydrochromeno[4,3-c]pyrazole-3-carboxamide]	10 to 100 nM	101 to 500 nM
COc1cc2c(cc1-c1cnn(CC(N)=O)c1)-c1c(c(C(=O)N(C)C(C)(C)C)nn1-c1cc(Cl)cc(Cl)c1)CO2 [Compound 2, 8-(1-(2-amino-2-oxoethyl)-1H-pyrazol-4-yl)-N-tert-butyl-1-(3,5-dichlorophenyl)-7-methoxy-N-methyl-1,4-dihydrochromeno[4,3-c]pyrazole-3-carboxamide]	< 10 nM	10 to 100 nM

Now from value to compound:

EC50 (FSHR)	EC50 [1]	SMILES
< 10 nM	10 to 100 nM	COc1cc2c(cc1-c1cncc(C#N)c1)-c1c(c(C(=O)N(C)C(C)(C)C#N)nn1-c1cc(F)cc(F)c1)CO2 [Compound 105, N-(2-cyanopropan-2-yl)-8-(5-cyanopyridin-3-yl)-1-(3,5-difluorophenyl)-7-methoxy-N-methyl-1,4-dihydrochromeno[4,3-c]pyrazole-3-carboxamide]
10 to 100 nM	101 to 500 nM	COc1cc2c(cc1-c1ccn(C)n1)-c1c(c(C(=O)N3CCOCC3(C)C)nn1-c1cc(F)cc(F)c1)CO2 [Compound 51, (1-(3,5-difluorophenyl)-7-methoxy-8-(1-methyl-1H-pyrazol-3-yl)-1,4-dihydrochromeno[4,3-c]pyrazol-3-yl)(3,3-dimethylmorpholino)methanone]
< 10 nM	101 to 500 nM	COc1cc2c(cc1-c1cc(F)cc(C(=O)O)c1)-c1c(c(C(=O)N(C)C(C)(C)C)nn1-c1cc(Cl)cc(Cl)c1)CO2 [Compound 83, 3-(3-(tert-butyl(methyl)carbamoyl)-1-(3,5-dichlorophenyl)-7-methoxy-1,4-dihydrochromeno[4,3-c]pyrazol-8-yl)-5-fluorobenzoic acid]
10 to 100 nM	101 to 500 nM	COc1cc2c(cc1-c1ccn(C)n1)-c1c(c(C(=O)N3C[C@H](O)[C@H](O)CC3(C)C)nn1-c1ccsc1)CO2 [Compound 130, ((4R,5S)-4,5-dihydroxy-2,2-dimethylpiperidin-1-yl)(7-methoxy-8-(1-methyl-1H-pyrazol-3-yl)-1-(thiophen-3-yl)-1,4-dihydrochromeno[4,3-c]pyrazol-3-yl)methanone]
< 10 nM	101 to 500 nM	COc1cc2c(cc1-c1cncc(C(N)=O)c1C)-c1c(c(C(=O)N(C)C(C)(C)C#N)nn1-c1cc(F)cc(F)c1)CO2 [Compound 119, 8-(5-carbamoyl-4-methylpyridin-3-yl)-N-(2-cyanopropan-2-yl)-1-(3,5-difluorophenyl)-7-methoxy-N-methyl-1,4-dihydrochromeno[4,3-c]pyrazole-3-carboxamide]
< 10 nM	101 to 500 nM	COc1cc2c(cc1-c1cc(C(N)=O)ncc1F)-c1c(c(C(=O)N(C)C(C)(C)C)nn1-c1cc(Cl)cc(Cl)c1)CO2 [Compound 68, N-tert-butyl-8-(2-carbamoyl-5-fluoropyridin-4-yl)-1-(3,5-dichlorophenyl)-7-methoxy-N-methyl-1,4-dihydrochromeno[4,3-c]pyrazole-3-carboxamide]
< 10 nM	10 to 100 nM	COc1cc2c(cc1-c1c(C)nn(CC(N)=O)c1C)-c1c(c(C(=O)N(C)C(C)(C)C)nn1-c1cc(Cl)cc(Cl)c1)CO2 [Compound 139, 8-(1-(2-amino-2-oxoethyl)-3,5-dimethyl-1H-pyrazol-4-yl)-N-tert-butyl-1-(3,5-dichlorophenyl)-7-methoxy-N-methyl-1,4-dihydrochromeno[4,3-c]pyrazole-3-carboxamide]
10 to 100 nM	101 to 500 nM	COc1cc2c(cc1-c1cnn(CC(N)=O)c1)-c1c(c(C(=O)N3CC[S+]([O-])CC3(C)C)nn1-c1cc(F)cc(F)c1)CO2 (stereo not shown) [Compound 71]
< 10 nM	10 to 100 nM	COc1cc(OC)cc(-n2nc(C(=O)N(C)C(C)(C)C)c3c2-c2cc(-c4cncc(C(N)=O)c4)c(OC)cc2OC3)c1 [Compound 160]
< 10 nM	10 to 100 nM	COc1cc(F)cc(-n2nc(C(=O)N(C)C(C)(C)C)c3c2-c2cc(-c4cncc(C#N)c4)c(OC)cc2OC3)c1 [Compound 54, N-tert-butyl-8-(5-cyanopyridin-3-yl)-1-(3-fluoro-5-methoxyphenyl)-7-methoxy-N-methyl-1,4-dihydrochromeno[4,3-c]pyrazole-3-carboxamide]
< 10 nM	101 to 500 nM	COc1cc2c(cc1-c1cc(=O)[nH]n1C)-c1c(c(C(=O)N(C)C(C)(C)C)nn1-c1ccsc1)CO2 [Compound 187]
< 10 nM	10 to 100 nM	[2H]C([2H])([2H])Oc1cc(Cl)cc(-n2nc(C(=O)N(C)C(C)(C)C)c3c2-c2cc(-c4cncc(C(N)=O)c4)c(OC([2H])([2H])[2H])cc2OC3)c1 [Compound 158]
10 to 100 nM	101 to 500 nM	COc1cc2c(cc1-c1cccc(C(=O)O)c1)-c1c(c(C(=O)N(C)C(C)(C)C)nn1-c1cc(Cl)cc(Cl)c1)CO2 [Compound 179]
